According to article PMC11200585, “Prospects for Prostate Cancer Chemotherapy: Cytotoxic Evaluation and Mechanistic Insights of Quinolinequinones with ADME/PK Profile” (Biomedicines, 2024):

How the values were obtained:
Type in all cases: cell-based, human
A498 = experiment: NCI-60 five-dose assay (renal cancer); details: 48 h, SRB
SF-295 = experiment: NCI-60 one-dose screen (CNS cancer); details: 10 µM single dose, 48 h
Procedure: (§1) The obtained quinolinequinones were submitted to NCI, Bethesda, USA, and, as per standard protocol of NCI, all compounds were evaluated for their antiproliferative activity at single-dose assay (10 µM concentration in DMSO) on a panel of 60 cancer cell lines derived from leukemia, non-small-cell lung, colon, CNS, melanoma, ovarian, renal, prostate, and breast, as per protocol. Tested compounds were added to the microtiter culture plates followed by incubation for 48 h at 37 °C. Sulforhodamine B (SRB), a protein-binding dye, is used for endpoint determination. The percent of the growth of the treated cells was determined in comparison to the untreated control cells and the results of each tested compound were reported. Data from one-dose experiments pertain to the percentage growth at 10 μM [16, 17, 18].

SNB-75 = experiment: NCI-60 one-dose screen (CNS cancer); details: 10 µM single dose, 48 h
Procedure: as §1

SF-268 = experiment: NCI-60 one-dose screen (CNS cancer); details: 10 µM single dose, 48 h
Procedure: as §1

SNB-19 = experiment: NCI-60 one-dose screen (CNS cancer); details: 10 µM single dose, 48 h
Procedure: as §1

SF-539 = experiment: NCI-60 one-dose screen (CNS cancer); details: 10 µM single dose, 48 h
Procedure: as §1

U251 = experiment: NCI-60 one-dose screen (CNS cancer); details: 10 µM single dose, 48 h
Procedure: as §1

DU-145 [1] = experiment: NCI-60 five-dose assay (prostate cancer); details: 48 h, SRB
OVCAR-4 = experiment: NCI-60 five-dose assay (ovarian cancer); details: 48 h, SRB
NCI-H23 = experiment: NCI-60 five-dose assay (non-small cell lung cancer); details: 48 h, SRB
LOX IMVI = experiment: NCI-60 five-dose assay (melanoma); details: 48 h, SRB
SK-MEL-5 = experiment: NCI-60 five-dose assay (melanoma); details: 48 h, SRB
OVCAR-8 = experiment: NCI-60 five-dose assay (ovarian cancer); details: 48 h, SRB
SR [2] = experiment: NCI-60 five-dose assay (leukemia); details: 48 h, SRB
CCRF-CEM [3] = experiment: NCI-60 five-dose assay (leukemia); details: 48 h, SRB
T-47D [4] = experiment: NCI-60 five-dose assay (breast cancer); details: 48 h, SRB
K-562 [5] = experiment: NCI-60 five-dose assay (leukemia); details: Homo sapiens, K562, 48 h, SRB
NCI-H322M = experiment: NCI-60 five-dose assay (non-small cell lung cancer); details: 48 h, SRB
PC-3 = experiment: NCI-60 one-dose screen (prostate cancer); details: 10 µM single dose
Procedure: as §1

DU-145 [6] = experiment: NCI-60 one-dose screen (prostate cancer); details: 10 µM single dose, 48 h
Procedure: as §1

BT-549 = experiment: NCI-60 one-dose screen (breast cancer); details: 10 µM single dose, 48 h
Procedure: as §1

MDA-MB-468 [7] = experiment: NCI-60 one-dose screen (breast cancer); details: 10 µM single dose, 48 h
Procedure: as §1

T-47D [8] = experiment: NCI-60 one-dose screen (breast cancer); details: 10 µM single dose, 48 h
Procedure: as §1

MDA-MB-231/ATCC = experiment: NCI-60 one-dose screen (breast cancer); details: 10 µM single dose, 48 h
Procedure: as §1

HS 578T [9] = experiment: NCI-60 one-dose screen (breast cancer); details: 10 µM single dose
Procedure: as §1

MCF7 = experiment: NCI-60 one-dose screen (breast cancer); details: 10 µM single dose, 48 h
Procedure: as §1

TK-10 = experiment: NCI-60 five-dose assay (renal cancer); details: 48 h, SRB
SW-620 = experiment: NCI-60 five-dose assay (colon cancer); details: 48 h, SRB
OVCAR-5 = experiment: NCI-60 five-dose assay (ovarian cancer); details: 48 h, SRB
UACC-62 = experiment: NCI-60 five-dose assay (melanoma); details: 48 h, SRB
HS 578T [10] = experiment: NCI-60 five-dose assay (breast cancer); details: 48 h, SRB
MDA-MB-468 [11] = experiment: NCI-60 five-dose assay (breast cancer); details: 48 h, SRB
K-562 [12] = experiment: NCI-60 one-dose screen (leukemia)
Procedure: as §1

HL-60(TB) = experiment: NCI-60 one-dose screen (leukemia); details: 10 µM single dose, 48 h
Procedure: as §1

SR [13] = experiment: NCI-60 one-dose screen (leukemia); details: 10 µM single dose, 48 h
Procedure: as §1

MOLT-4 = experiment: NCI-60 one-dose screen (leukemia); details: 10 µM single dose, 48 h
Procedure: as §1

RPMI-8226 = experiment: NCI-60 one-dose screen (leukemia); details: 10 µM single dose, 48 h
Procedure: as §1

CCRF-CEM [14] = experiment: NCI-60 one-dose screen (leukemia); details: 10 µM single dose, 48 h
Procedure: as §1

[15] = Homo sapiens, read-out: LC50 (the source's name)

CCOc1ccccc1NC1=C(Cl)C(=O)c2nc(C)ccc2C1=O [AQQ2]
TGI (A498): 10.8 µM
GI50 (A498; Homo sapiens): 2.65 µM
LC50 (A498; Homo sapiens): 34.8 µM
GP (growth percentage) (SF-295): 90.72%
GP (growth percentage) (SNB-75): 101.38%
GP (growth percentage) (SF-268): 32.75%
GP (growth percentage) (SNB-19): 46.47%
GP (growth percentage) (SF-539): −37.33%
GP (growth percentage) (U251): 37.89%
TGI (DU-145 [1]): 2.99 µM
GI50 (DU-145 [1]; Homo sapiens): 1.63 µM
CC50 (DU-145 [1]; [15]): 5.49 µM
TGI (OVCAR-4): 2.22 µM
GI50 (OVCAR-4; Homo sapiens): 1 µM
LC50 (concentration killing 50% of cells) (OVCAR-4; Homo sapiens): 4.91 µM
TGI (NCI-H23): 3.55 µM
GI50 (NCI-H23; Homo sapiens): 1.44 µM
CC50 (NCI-H23; [15]): 8.71 µM
TGI (LOX IMVI): 2.22 µM
GI50 (LOX IMVI; Homo sapiens): 0.839 µM
LC50 (concentration killing 50% of cells) (LOX IMVI; Homo sapiens): 5.33 µM
TGI (SK-MEL-5): 3.13 µM
GI50 (SK-MEL-5; Homo sapiens): 1.74 µM
CC50 (SK-MEL-5; [15]): 5.65 µM
TGI (OVCAR-8): 2.92 µM
GI50 (OVCAR-8; Homo sapiens): 1.49 µM
CC50 (OVCAR-8; [15]): 5.7 µM
TGI (SR [2]): 4.14 µM
GI50 (SR [2]; Homo sapiens): 0.543 µM
CC50 (SR [2]; [15]): > 100 µM
TGI (CCRF-CEM [3]): >100 µM
GI50 (CCRF-CEM [3]; Homo sapiens): 1.41 µM
LC50 (concentration killing 50% of cells) (CCRF-CEM [3]; Homo sapiens): > 100 µM
TGI (T-47D [4]): 3.17 µM
GI50 (T-47D [4]; Homo sapiens, T47D): 0.467 µM
CC50 (T-47D [4]; Homo sapiens, T47D, read-out: LC50 (the source's name)): > 100 µM
GI50 (K-562 [5]): 0.341 µM
LC50 (K-562 [5]): > 100 µM
TGI (NCI-H322M): 7.91 µM
GI50 (NCI-H322M; Homo sapiens): 2.22 µM
CC50 (NCI-H322M; [15]): 29.7 µM
GP (growth percentage) (PC-3; 48 h): 4.34%
inhibition at 10 µM (PC-3; Homo sapiens): 95.7%
GP (growth percentage) (DU-145 [6]): −85.02%
GP (growth percentage) (BT-549): 44.40%
GP (growth percentage) (MDA-MB-468 [7]): −90.72%
GP (growth percentage) (T-47D [8]): −40.00%
GP (growth percentage) (MDA-MB-231/ATCC): −63.63%
GP (growth percentage) (HS 578T [9]; 48 h): 1.05%
inhibition at 10 µM (HS 578T [9]; Homo sapiens): 99%
GP (growth percentage) (MCF7): −59.68%
TGI (TK-10): 3.72 µM
GI50 (TK-10; Homo sapiens): 2.25 µM
LC50 (concentration killing 50% of starting cells) (TK-10; Homo sapiens): 6.18 µM
TGI (SW-620): 3.21 µM
GI50 (SW-620; Homo sapiens): 1.6 µM
LC50 (SW-620; Homo sapiens): 6.41 µM
TGI (OVCAR-5): 3.33 µM
GI50 (OVCAR-5; Homo sapiens): 1.84 µM
LC50 (lethal concentration 50%) (OVCAR-5; Homo sapiens): 6.03 µM
TGI (UACC-62): 3.36 µM
GI50 (UACC-62; Homo sapiens): 1.8 µM
LC50 (concentration killing 50% of cells) (UACC-62; Homo sapiens): 6.28 µM
TGI (HS 578T [10]): 5.25 µM
GI50 (HS 578T [10]; Homo sapiens): 2.11 µM
CC50 (HS 578T [10]; [15]): > 100 µM
TGI (MDA-MB-468 [11]): 2.88 µM
GI50 (MDA-MB-468 [11]; Homo sapiens): 1.45 µM
LC50 (MDA-MB-468 [11]; Homo sapiens): 5.71 µM
GP (growth percentage) (K-562 [12]; 10 µM single dose, 48 h): 1.26%
inhibition at 10 µM (K-562 [12]; Homo sapiens, K562, 10 µM single dose): 98.7%
GP (growth percentage) (HL-60(TB)): −36.75%
GP (growth percentage) (SR [13]): −12.75%
GP (growth percentage) (MOLT-4): −24.89%
GP (growth percentage) (RPMI-8226): −35.12%
GP (growth percentage) (CCRF-CEM [14]): −6.33%
